Experimental data published in patent US20030105095A1 (CHEIL JEDANG Corporation, priority 2001, published 2003).

Experiments:
cyclooxygenase-2 = molecular target: T1, cyclooxygenase-2 (Mus musculus, UniProt Q05769); assay: Cyclooxygenase-2 inhibition in aspirin-treated, LPS-induced mouse peritoneal macrophages (PGE2 ELISA); assay type: cell-based
T1 construct: blended with 3% FBS-RPMI 1640 medium containing 10 μg/ml of LPS in each well; endogenous in cells; host or cells: primary mouse peritoneal macrophages, pretreated with 500 μM aspirin and induced with LPS
T1 sequence (Q05769 18-604): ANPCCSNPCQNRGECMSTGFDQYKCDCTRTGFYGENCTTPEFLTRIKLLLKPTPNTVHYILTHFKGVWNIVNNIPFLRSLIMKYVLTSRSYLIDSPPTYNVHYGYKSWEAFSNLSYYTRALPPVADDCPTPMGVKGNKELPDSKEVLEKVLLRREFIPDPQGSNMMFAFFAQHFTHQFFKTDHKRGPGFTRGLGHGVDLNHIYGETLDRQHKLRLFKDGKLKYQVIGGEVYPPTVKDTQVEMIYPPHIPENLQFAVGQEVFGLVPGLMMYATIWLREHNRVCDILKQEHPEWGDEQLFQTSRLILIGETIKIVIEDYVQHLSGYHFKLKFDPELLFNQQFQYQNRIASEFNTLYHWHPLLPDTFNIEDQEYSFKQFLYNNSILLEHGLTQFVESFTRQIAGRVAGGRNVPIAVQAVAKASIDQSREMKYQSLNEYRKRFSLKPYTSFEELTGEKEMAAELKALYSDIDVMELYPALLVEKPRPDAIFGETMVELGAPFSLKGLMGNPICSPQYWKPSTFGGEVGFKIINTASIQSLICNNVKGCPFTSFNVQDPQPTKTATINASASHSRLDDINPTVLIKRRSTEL
Description: Second, the cyclooxygenase-2 was examined through the following procedure.
(§1) Peritoneal fluid in which macrophages were suspended was extracted from a mouse peritoneal cavity and centrifuged at 4° C., 1,000 rpm for 2 minutes. Then, the supernatant was removed, suspended using 20 ml of incomplete RPMI medium [PC/SM (penicilin/streptomycin)] and again centrifuged under the same condition. […] Then, the cell number was calculated with the hemocytometer and adjusted to reach 1×10^6 cells/ml of cell concentration in the final cell suspension. The resulting suspension was treated with aspirin, adjusting 500 μM of final concentration and poured into each well of 96-well plate in 100 μl respectively. Again, it was left with the incubator at 37° C. in 5% CO2 for about 2 hours in order to attach macrophages. […] The resulting cell was cultivated with the incubator at 37° C. in 5% CO2 for about 12˜16 hours. Then, arachidonic acid was added, adjusting to 10 μM of a final concentration and incubated at 37° C. for more 10 minutes and the supernatant of the reacted solution (˜180 μl) was recovered to finish the reaction.

cyclooxygenase-1 = molecular target: T2, cyclooxygenase-1 (Mus musculus, UniProt P22437); assay: Cyclooxygenase-1 inhibition in mouse peritoneal macrophages (PGE2 ELISA); assay type: cell-based
T2 construct: endogenous in cells; host or cells: primary mouse peritoneal macrophages (unstimulated)
T2 sequence (P22437 27-602): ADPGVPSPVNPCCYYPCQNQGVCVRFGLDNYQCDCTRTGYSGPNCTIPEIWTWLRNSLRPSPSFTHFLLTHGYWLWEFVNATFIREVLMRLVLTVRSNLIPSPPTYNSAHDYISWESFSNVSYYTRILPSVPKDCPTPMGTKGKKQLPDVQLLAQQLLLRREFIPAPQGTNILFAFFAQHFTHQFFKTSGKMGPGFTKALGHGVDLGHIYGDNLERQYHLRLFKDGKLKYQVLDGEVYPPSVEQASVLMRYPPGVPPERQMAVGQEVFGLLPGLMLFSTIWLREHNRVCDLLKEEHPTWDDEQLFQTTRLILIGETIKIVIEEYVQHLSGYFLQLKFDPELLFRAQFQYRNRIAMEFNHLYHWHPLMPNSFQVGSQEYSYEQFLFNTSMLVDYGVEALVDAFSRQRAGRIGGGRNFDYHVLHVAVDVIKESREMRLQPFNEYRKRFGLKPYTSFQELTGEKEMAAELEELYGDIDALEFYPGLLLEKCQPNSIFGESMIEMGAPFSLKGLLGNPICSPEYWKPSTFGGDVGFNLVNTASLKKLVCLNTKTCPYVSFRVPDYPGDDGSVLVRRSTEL
Description: First of all, the cyclooxygenase-1 was examined through the following procedure.
as §1, with “[including PC/SM” for “[PC/SM”, “was” for “was treated with aspirin, adjusting 500 μM of final concentration and”, “and” for “in 100 μl respectively. Again, it was”

CCCCOc1ccc(-c2ccc(S(C)(=O)=O)cc2)cc1OCCCC [Example 6, 4′-methanesulfonyl-3,4-dibutyloxy-biphenyl]
Inhibitory effects of cyclooxygenase (COX): COX-2 (cyclooxygenase-2; 30 nM): ˜0 % inhibition
Inhibitory effects of cyclooxygenase (COX): COX-2 (cyclooxygenase-2; 100 nM): ˜0 % inhibition
Inhibitory effects of cyclooxygenase (COX): COX-2 (cyclooxygenase-2; 300 nM): ˜0 % inhibition
Inhibitory effects of cyclooxygenase (COX): COX-1 (cyclooxygenase-1; 3 μM): 14.7 % inhibition
Inhibitory effects of cyclooxygenase (COX): COX-1 (cyclooxygenase-1; 10 μM): 20.9 % inhibition
Inhibitory effects of cyclooxygenase (COX): COX-1 (cyclooxygenase-1; 30 μM): 22.7 % inhibition

CS(=O)(=O)c1ccc(-c2ccc(OC3CC3)c(OC3CC3)c2)cc1 [Example 5, 4′-methanesulfonyl-3,4-dicyclopropyloxy-biphenyl]
Inhibitory effects of cyclooxygenase (COX): COX-2 (cyclooxygenase-2; 30 nM): 30.2 % inhibition
Inhibitory effects of cyclooxygenase (COX): COX-2 (cyclooxygenase-2; 100 nM): 33.3 % inhibition
Inhibitory effects of cyclooxygenase (COX): COX-2 (cyclooxygenase-2; 300 nM): 46.5 % inhibition
Inhibitory effects of cyclooxygenase (COX): COX-1 (cyclooxygenase-1; 3 μM): 50.3 % inhibition
Inhibitory effects of cyclooxygenase (COX): COX-1 (cyclooxygenase-1; 10 μM): 58.4 % inhibition
Inhibitory effects of cyclooxygenase (COX): COX-1 (cyclooxygenase-1; 30 μM): 60.4 % inhibition

CCCOc1ccc(-c2ccc(S(C)(=O)=O)cc2)cc1OCCC [Example 3, 4′-methanesulfonyl-3,4-dipropyloxy-biphenyl]
Inhibitory effects of cyclooxygenase (COX): COX-2 (cyclooxygenase-2; 30 nM): 5.0 % inhibition
Inhibitory effects of cyclooxygenase (COX): COX-2 (cyclooxygenase-2; 100 nM): 5.5 % inhibition
Inhibitory effects of cyclooxygenase (COX): COX-2 (cyclooxygenase-2; 300 nM): 10.1 % inhibition
Inhibitory effects of cyclooxygenase (COX): COX-1 (cyclooxygenase-1; 3 μM): 9.4 % inhibition
Inhibitory effects of cyclooxygenase (COX): COX-1 (cyclooxygenase-1; 10 μM): 10.1 % inhibition
Inhibitory effects of cyclooxygenase (COX): COX-1 (cyclooxygenase-1; 30 μM): 23.4 % inhibition

COc1ccc(-c2ccc(S(C)(=O)=O)cc2)cc1OC [Example 1, 4′-methanesulfonyl-3,4-dimethoxy-biphenyl]
Inhibitory effects of cyclooxygenase (COX): COX-2 (cyclooxygenase-2; 30 nM): 46.2 % inhibition
Inhibitory effects of cyclooxygenase (COX): COX-2 (cyclooxygenase-2; 100 nM): 50.7 % inhibition
Inhibitory effects of cyclooxygenase (COX): COX-2 (cyclooxygenase-2; 300 nM): 59.7 % inhibition
Inhibitory effects of cyclooxygenase (COX): COX-1 (cyclooxygenase-1; 3 μM): 44.4 % inhibition
Inhibitory effects of cyclooxygenase (COX): COX-1 (cyclooxygenase-1; 10 μM): 50.5 % inhibition
Inhibitory effects of cyclooxygenase (COX): COX-1 (cyclooxygenase-1; 30 μM): 64.7 % inhibition

CC(C)Oc1ccc(-c2ccc(S(C)(=O)=O)cc2)cc1OC(C)C [Example 4, 4′-methanesulfonyl-3,4-diisopropyloxy-biphenyl]
Inhibitory effects of cyclooxygenase (COX): COX-2 (cyclooxygenase-2; 30 nM): ˜0 % inhibition
Inhibitory effects of cyclooxygenase (COX): COX-2 (cyclooxygenase-2; 100 nM): ˜0 % inhibition
Inhibitory effects of cyclooxygenase (COX): COX-2 (cyclooxygenase-2; 300 nM): ˜0 % inhibition
Inhibitory effects of cyclooxygenase (COX): COX-1 (cyclooxygenase-1; 3 μM): 58.2 % inhibition
Inhibitory effects of cyclooxygenase (COX): COX-1 (cyclooxygenase-1; 10 μM): 70.4 % inhibition
Inhibitory effects of cyclooxygenase (COX): COX-1 (cyclooxygenase-1; 30 μM): 78.4 % inhibition

CCOc1ccc(-c2ccc(S(C)(=O)=O)cc2)cc1OCC [Example 2, 4′-methanesulfonyl-3,4-diethoxy-biphenyl]
Inhibitory effects of cyclooxygenase (COX): COX-2 (cyclooxygenase-2; 30 nM): 55.2 % inhibition
Inhibitory effects of cyclooxygenase (COX): COX-2 (cyclooxygenase-2; 100 nM): 60.5 % inhibition
Inhibitory effects of cyclooxygenase (COX): COX-2 (cyclooxygenase-2; 300 nM): 76.5 % inhibition
Inhibitory effects of cyclooxygenase (COX): COX-1 (cyclooxygenase-1; 3 μM): 61.5 % inhibition
Inhibitory effects of cyclooxygenase (COX): COX-1 (cyclooxygenase-1; 10 μM): 70.5 % inhibition
Inhibitory effects of cyclooxygenase (COX): COX-1 (cyclooxygenase-1; 30 μM): 77.1 % inhibition

CS(=O)(=O)c1ccc(-c2ccc(OCc3ccccc3)c(OCc3ccccc3)c2)cc1 [Example 7, 4′-methanesulfonyl-3,4-dibenzyloxy-biphenyl]
Inhibitory effects of cyclooxygenase (COX): COX-2 (cyclooxygenase-2; 30 nM): 47.6 % inhibition
Inhibitory effects of cyclooxygenase (COX): COX-2 (cyclooxygenase-2; 100 nM): 60.3 % inhibition
Inhibitory effects of cyclooxygenase (COX): COX-2 (cyclooxygenase-2; 300 nM): 68.4 % inhibition
Inhibitory effects of cyclooxygenase (COX): COX-1 (cyclooxygenase-1; 3 μM): 36.8 % inhibition
Inhibitory effects of cyclooxygenase (COX): COX-1 (cyclooxygenase-1; 10 μM): 40.5 % inhibition
Inhibitory effects of cyclooxygenase (COX): COX-1 (cyclooxygenase-1; 30 μM): 41.1 % inhibition

CCCCOc1cc(-c2ccc(S(C)(=O)=O)cc2)ccc1OC(C)C [Example 9, 3-butoxy-4-isopropoxy-4′-methanesulfonyl-biphenyl]
Inhibitory effects of cyclooxygenase (COX): COX-2 (cyclooxygenase-2; 30 nM): 44.2 % inhibition
Inhibitory effects of cyclooxygenase (COX): COX-2 (cyclooxygenase-2; 100 nM): 59.8 % inhibition
Inhibitory effects of cyclooxygenase (COX): COX-2 (cyclooxygenase-2; 300 nM): 70.4 % inhibition
Inhibitory effects of cyclooxygenase (COX): COX-1 (cyclooxygenase-1; 3 μM): 49.8 % inhibition
Inhibitory effects of cyclooxygenase (COX): COX-1 (cyclooxygenase-1; 10 μM): 66.4 % inhibition
Inhibitory effects of cyclooxygenase (COX): COX-1 (cyclooxygenase-1; 30 μM): 70.8 % inhibition

CS(=O)(=O)c1ccc(-c2ccc(OC3CCCC3)c(OC3CCCC3)c2)cc1 [Example 8, 4′-methanesulfonyl-3,4-dicyclopentyloxy-biphenyl]
Inhibitory effects of cyclooxygenase (COX): COX-2 (cyclooxygenase-2; 30 nM): 27.4 % inhibition
Inhibitory effects of cyclooxygenase (COX): COX-2 (cyclooxygenase-2; 100 nM): 42.7 % inhibition
Inhibitory effects of cyclooxygenase (COX): COX-2 (cyclooxygenase-2; 300 nM): 54.7 % inhibition
Inhibitory effects of cyclooxygenase (COX): COX-1 (cyclooxygenase-1; 3 μM): 29.7 % inhibition
Inhibitory effects of cyclooxygenase (COX): COX-1 (cyclooxygenase-1; 10 μM): 40.2 % inhibition
Inhibitory effects of cyclooxygenase (COX): COX-1 (cyclooxygenase-1; 30 μM): 49.7 % inhibition
